Activity calls are given as the source filed them.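 How the source made its calls: active means compounds lowering the signal whose fitted AC50 is at most twice their top tested dose; inconclusive means flat fit with 30 to 70% inhibition, or poor fit; inactive means the rest.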
biological target: Drosophila melanogaster bursicon receptor (rickets, LGR2); test: LGR2 bursicon receptor antagonists, dose response, cell-based, HEK293, CRE-luciferase, luminescence, dry powder (AID 977612); conditions: bursicon-stimulated, antagonist luminescence

SMILES	AC50
C[C@H](CO)N1C[C@H](C)[C@H](CN(C)C(=O)Nc2ccc3c(c2)OCO3)OCCCC[C@H](C)Oc2ccc(NC(=O)NC3CCCCC3)cc2C1=O	31 µM
C[C@H]1CCCCO[C@@H](CN(C)C(=O)Nc2ccc(C(F)(F)F)cc2)[C@@H](C)CN([C@@H](C)CO)C(=O)c2cc(NC(=O)CCC(F)(F)F)ccc2O1	31.7 µM
C[C@H](CO)N1C[C@H](C)[C@H](CN(C)C(=O)Nc2ccc(F)cc2)OCCCC[C@H](C)Oc2ccc(NC(=O)C3CCCCC3)cc2C1=O	6.2 µM
C[C@H](CO)N1C[C@H](C)[C@H](CN(C)C(=O)Nc2cccc3ccccc23)OCCCC[C@H](C)Oc2ccc(NC(=O)c3ccccc3)cc2C1=O	22.8 µM
C[C@@H]1CN([C@@H](C)CO)C(=O)c2cc(NC(=O)C3CCCCC3)ccc2O[C@@H](C)CCCCO[C@H]1CN(C)C(=O)Nc1cccc2ccccc12	> 70 µM (inactive)
C[C@@H]1CN([C@H](C)CO)C(=O)c2cc(NC(=O)C3CCCCC3)ccc2O[C@@H](C)CCCCO[C@H]1CN(C)C(=O)Nc1cccc2ccccc12	> 70 µM (inactive)
C[C@@H]1CN([C@H](C)CO)C(=O)c2cc(NC(=O)C3CCCCC3)ccc2O[C@@H](C)CCCCO[C@@H]1CN(C)C(=O)Nc1cccc2ccccc12	> 70 µM (inactive)
COc1ccc(NC(=O)N(C)C[C@@H]2OCCCC[C@H](C)Oc3ccc(NC(=O)C4CCCCC4)cc3C(=O)N([C@H](C)CO)C[C@@H]2C)cc1	10.1 µM
C[C@@H]1CCCCO[C@H](CN(C)C(=O)Nc2cccc3ccccc23)[C@@H](C)CN([C@@H](C)CO)C(=O)c2cc(NC(=O)C3CCCCC3)ccc2O1	> 70 µM (inactive)
COc1ccc(NC(=O)N(C)C[C@@H]2OCCCC[C@H](C)Oc3ccc(NC(=O)NC4CCCCC4)cc3C(=O)N([C@H](C)CO)C[C@@H]2C)cc1	30.8 µM
C[C@H](CO)N1C[C@H](C)[C@H](CN(C)C(=O)Nc2ccc(C(F)(F)F)cc2)OCCCC[C@H](C)Oc2ccc(NC(=O)CCC(F)(F)F)cc2C1=O	15 µM
C[C@H](CO)N1C[C@H](C)[C@H](CN(C)C(=O)Nc2ccc(F)cc2)OCCCC[C@H](C)Oc2ccc(NC(=O)NC3CCCCC3)cc2C1=O	21.4 µM
C[C@@H]1CCCCO[C@@H](CN(C)C(=O)Nc2cccc3ccccc23)[C@@H](C)CN([C@@H](C)CO)C(=O)c2cc(NC(=O)C3CCCCC3)ccc2O1	> 70 µM (inactive)
C[C@H]1CCCCO[C@@H](CN(C)C(=O)Nc2ccc(F)cc2)[C@@H](C)CN([C@@H](C)CO)C(=O)c2cc(NC(=O)C3CCCCC3)ccc2O1	11.4 µM
C[C@H](CO)N1C[C@H](C)[C@H](CN(C)C(=O)Nc2ccccc2)OCCCC[C@H](C)Oc2ccc(NC(=O)CCC(F)(F)F)cc2C1=O	36.3 µM
C[C@H](CO)N1C[C@H](C)[C@H](CN(C)C(=O)Nc2ccccc2)OCCCC[C@H](C)Oc2ccc(NC(=O)NC3CCCCC3)cc2C1=O	20.9 µM
C[C@H](CO)N1C[C@H](C)[C@H](CN(C)C(=O)Nc2cccc3ccccc23)OCCCC[C@H](C)Oc2ccc(NC(=O)NC3CCCCC3)cc2C1=O	23.2 µM
C[C@H](CO)N1C[C@H](C)[C@H](CN(C)C(=O)Nc2ccccc2)OCCCC[C@H](C)Oc2ccc(NC(=O)C3CCCCC3)cc2C1=O	12.6 µM
COc1ccc(S(=O)(=O)N(C)C[C@@H]2OCCCC[C@H](C)Oc3ccc(NS(=O)(=O)c4ccc(Cl)cc4)cc3C(=O)N([C@@H](C)CO)C[C@@H]2C)cc1	19.1 µM
C[C@H](CO)N1C[C@H](C)[C@H](CN(C)C(=O)Nc2cccc3ccccc23)OCCCC[C@H](C)Oc2ccc(NC(=O)CCC(F)(F)F)cc2C1=O	13.1 µM
C[C@H](CO)N1C[C@H](C)[C@H](CN(C)C(=O)Nc2ccc3c(c2)OCO3)OCCCC[C@H](C)Oc2ccc(NC(=O)C3CCCCC3)cc2C1=O	10.5 µM

same assay, conditions: bursicon-stimulated, antagonist luminescence, at 35 µM (top of the series)

SMILES	activity change, negative = inhibition
C[C@@H]1CN([C@@H](C)CO)C(=O)c2cc(NC(=O)C3CCCCC3)ccc2O[C@@H](C)CCCCO[C@@H]1CN(C)C(=O)Nc1cccc2ccccc12	inactive
C[C@@H]1CCCCO[C@H](CN(C)C(=O)Nc2cccc3ccccc23)[C@H](C)CN([C@@H](C)CO)C(=O)c2cc(NC(=O)C3CCCCC3)ccc2O1	inactive
C[C@H]1CCCCO[C@@H](CN(C)S(=O)(=O)c2ccc(Cl)cc2)[C@@H](C)CN([C@@H](C)CO)C(=O)c2cc(NC(=O)NC3CCCCC3)ccc2O1	inactive
C[C@@H]1CCCCO[C@@H](CN(C)C(=O)Nc2cccc3ccccc23)[C@H](C)CN([C@@H](C)CO)C(=O)c2cc(NC(=O)C3CCCCC3)ccc2O1	inactive
C[C@H](CO)N1C[C@H](C)[C@H](CN(C)C(=O)Nc2ccc(F)cc2)OCCCC[C@H](C)Oc2ccc(NC(=O)C3CCOCC3)cc2C1=O	inactive
C[C@@H]1CCCCO[C@@H](CN(C)C(=O)Nc2cccc3ccccc23)[C@H](C)CN([C@H](C)CO)C(=O)c2cc(NC(=O)C3CCCCC3)ccc2O1	inactive
CC(=O)Nc1ccc2c(c1)C(=O)N([C@H](C)CO)C[C@H](C)[C@H](CN(C)C(=O)Nc1ccc(F)cc1)OCCCC[C@H](C)O2	inactive
C[C@H](CO)N1C[C@H](C)[C@H](CN(C)C(=O)Nc2ccc(F)cc2)OCCCC[C@H](C)Oc2ccc(NC(=O)C3CC3)cc2C1=O	inactive
C[C@@H]1CCCCO[C@H](CN(C)C(=O)Nc2cccc3ccccc23)[C@H](C)CN([C@H](C)CO)C(=O)c2cc(NC(=O)C3CCCCC3)ccc2O1	inactive
C[C@@H]1CCCCO[C@H](CN(C)C(=O)Nc2cccc3ccccc23)[C@@H](C)CN([C@H](C)CO)C(=O)c2cc(NC(=O)C3CCCCC3)ccc2O1	inactive
C[C@H](CO)N1C[C@H](C)[C@@H](CN(C)C(=O)Nc2cccc3ccccc23)OCCCC[C@H](C)Oc2ccc(NC(=O)C3CCCCC3)cc2C1=O	inactive
C[C@H]1CCCCO[C@H](CN(C)C(=O)Nc2cccc3ccccc23)[C@@H](C)CN([C@@H](C)CO)C(=O)c2cc(NC(=O)C3CCCCC3)ccc2O1	inactive
C[C@@H]1CCCCO[C@@H](CN(C)C(=O)Nc2cccc3ccccc23)[C@@H](C)CN([C@H](C)CO)C(=O)c2cc(NC(=O)C3CCCCC3)ccc2O1	inactive
CC(C)(C)c1ccc(-c2nc(-c3ccncc3)no2)cc1	inactive
